Read-outs that look alike come from different tables or passages of the source.
Columns and labels:
Assay type in all cases: in vivo
Plutella xylostella = Plutella xylostella (Diamond Back Moth) artificial diet MTP test; conditions: 144 h, 200 ppm (concentration in well 18 ppm), L2 larvae, 6 days, larval mortality, growth regulation
Spodoptera littoralis = Spodoptera littoralis (Egyptian Cotton Leafworm) cotton leaf disc spray test; conditions: foliar, 72 h, 200 ppm spray on cotton leaf discs, L1 larvae, mortality, feeding behavior, growth regulation 3 DAT
Tetranychus urticae = Tetranychus urticae (Two-Spotted Spider Mite) bean leaf disc spray test; conditions: foliar, 192 h, read-out: control of Tetranychus urticae
Diabrotica balteata = Diabrotica balteata (Corn Root Worm) artificial diet MTP test; conditions: 120 h, 200 ppm (concentration in well 18 ppm), L2 larvae, 5 days, larval mortality, growth regulation
Heliothis virescens = Heliothis virescens (Tobacco Budworm) egg test on artificial diet; conditions: 96 h, 200 ppm (concentration in well 18 ppm), eggs 0-24 h old on artificial diet, 4 days, egg mortality, larval mortality, growth regulation
Thrips tabaci = Thrips tabaci (Onion Thrips) sunflower leaf disc spray test; conditions: foliar, 168 h, 200 ppm spray on sunflower leaf discs, population of mixed ages, 7 days, mortality
[1] = 200 ppm spray on bean leaf discs, mite populations of mixed ages, 8 days, egg, larval and adult mortality

Measured: pest or weed control at 200 ppm

COc1c(NC(=O)c2ccc([N+](=O)[O-])cc2C)cccc1C(=O)Nc1c(Cl)cc(C(F)(C(F)(F)F)C(F)(F)C(F)(F)F)cc1Br (stereo not drawn) [B196]
≥ 80%: Plutella xylostella | Spodoptera littoralis | Tetranychus urticae; [1]

COc1c(NC(=O)c2ccc([N+](=O)[O-])cc2C)cccc1C(=O)Nc1c(C)cc(C(F)(C(F)(F)F)C(F)(F)C(F)(F)F)cc1C (stereo not drawn) [F24]
≥ 80%: Plutella xylostella | Spodoptera littoralis | Diabrotica balteata | Tetranychus urticae; [1] | Heliothis virescens

COc1c(NC(=O)c2c(F)cc(F)cc2F)cccc1C(=O)Nc1c(C)cc(C(F)(C(F)(F)F)C(F)(F)C(F)(F)F)cc1C (stereo not drawn) [F25]
≥ 80%: Plutella xylostella | Spodoptera littoralis | Diabrotica balteata | Tetranychus urticae; [1] | Heliothis virescens

COc1c(NC(=O)c2ccc(F)cc2F)cccc1C(=O)Nc1c(Cl)cc(C(F)(C(F)(F)F)C(F)(F)C(F)(F)F)cc1Br (stereo not drawn) [B23]
≥ 80%: Plutella xylostella | Spodoptera littoralis | Tetranychus urticae; [1] | Heliothis virescens

COc1c(NC(=O)c2ccc(OC(F)(F)F)cc2)cccc1C(=O)Nc1c(C)cc(C(F)(C(F)(F)F)C(F)(F)C(F)(F)F)cc1C (stereo not drawn) [F5]
≥ 80%: Plutella xylostella | Spodoptera littoralis | Tetranychus urticae; [1] | Heliothis virescens

COc1c(NC(=O)c2cccc([N+](=O)[O-])c2C)cccc1C(=O)Nc1c(Cl)cc(C(F)(C(F)(F)F)C(F)(F)C(F)(F)F)cc1Br (stereo not drawn) [B69]
≥ 80%: Plutella xylostella | Spodoptera littoralis | Diabrotica balteata | Tetranychus urticae; [1] | Heliothis virescens

COc1c(NC(=O)c2ccc(Br)c(OC)c2C)cccc1C(=O)Nc1c(Cl)cc(C(F)(C(F)(F)F)C(F)(F)C(F)(F)F)cc1Br (stereo not drawn) [B139]
≥ 80%: Plutella xylostella | Spodoptera littoralis | Tetranychus urticae; [1] | Heliothis virescens

COc1c(NC(=O)c2ccc([N+](=O)[O-])c([N+](=O)[O-])c2)cccc1C(=O)Nc1c(Cl)cc(C(F)(C(F)(F)F)C(F)(F)C(F)(F)F)cc1Br (stereo not drawn) [B195]
≥ 80%: Plutella xylostella | Spodoptera littoralis | Tetranychus urticae | Heliothis virescens

COc1c(NC(=O)c2c(C)cc(Br)cc2Cl)cccc1C(=O)Nc1c(Cl)cc(C(F)(C(F)(F)F)C(F)(F)C(F)(F)F)cc1Br (stereo not drawn) [B159]
≥ 80%: Plutella xylostella | Spodoptera littoralis | Diabrotica balteata | Tetranychus urticae; [1] | Heliothis virescens

COc1c(NC(=O)c2ccccc2F)cccc1C(=O)Nc1c(C)cc(C(F)(C(F)(F)F)C(F)(F)C(F)(F)F)cc1C (stereo not drawn) [F1]
≥ 80%: Plutella xylostella | Spodoptera littoralis | Diabrotica balteata | Tetranychus urticae; [1] | Heliothis virescens

COc1c(NC(=O)c2ccc([N+](=O)[O-])o2)cccc1C(=O)Nc1c(Cl)cc(C(F)(C(F)(F)F)C(F)(F)C(F)(F)F)cc1Br (stereo not drawn) [B61]
≥ 80%: Plutella xylostella | Spodoptera littoralis | Diabrotica balteata | Tetranychus urticae; [1] | Heliothis virescens

CCc1cc(C(F)(C(F)(F)F)C(F)(F)F)cc(C)c1NC(=O)c1cccc(NC(=O)c2c(F)cc(C#N)cc2F)c1OC [J2]
≥ 80%: Plutella xylostella | Diabrotica balteata | Tetranychus urticae; [1] | Heliothis virescens

COc1c(NC(=O)c2c(Cl)cccc2Cl)cccc1C(=O)Nc1c(Cl)cc(C(F)(C(F)(F)F)C(F)(F)C(F)(F)F)cc1Br (stereo not drawn) [B158]
≥ 80%: Plutella xylostella | Spodoptera littoralis | Diabrotica balteata | Tetranychus urticae; [1] | Heliothis virescens

COc1cc(C(=O)Nc2cccc(C(=O)Nc3c(Cl)cc(C(F)(C(F)(F)F)C(F)(F)C(F)(F)F)cc3Br)c2OC)cc(Cl)n1 (stereo not drawn) [B146]
≥ 80%: Plutella xylostella | Spodoptera littoralis | Diabrotica balteata | Thrips tabaci | Heliothis virescens

COc1c(NC(=O)c2cc(F)c(C#N)cc2F)cccc1C(=O)Nc1c(Cl)cc(C(F)(C(F)(F)F)C(F)(F)F)cc1Cl [E24]
≥ 80%: Plutella xylostella | Spodoptera littoralis | Diabrotica balteata | Tetranychus urticae; [1] | Heliothis virescens

COc1c(NC(=O)c2ccc(Br)cc2C)cccc1C(=O)Nc1c(Cl)cc(C(F)(C(F)(F)F)C(F)(F)C(F)(F)F)cc1Br (stereo not drawn) [B138]
≥ 80%: Plutella xylostella | Spodoptera littoralis | Tetranychus urticae; [1] | Heliothis virescens

COc1c(NC(=O)c2cccc([N+](=O)[O-])c2)cccc1C(=O)Nc1c(Cl)cc(C(F)(C(F)(F)F)C(F)(F)C(F)(F)F)cc1Br (stereo not drawn) [B193]
≥ 80%: Plutella xylostella | Spodoptera littoralis | Tetranychus urticae; [1] | Heliothis virescens

COc1c(NC(=O)c2sc(C(F)(F)F)nc2C)cccc1C(=O)Nc1c(Cl)cc(C(F)(C(F)(F)F)C(F)(F)C(F)(F)F)cc1Br (stereo not drawn) [B104]
≥ 80%: Plutella xylostella | Spodoptera littoralis | Tetranychus urticae; [1] | Heliothis virescens

COc1c(NC(=O)c2ccc(Br)o2)cccc1C(=O)Nc1c(Cl)cc(C(F)(C(F)(F)F)C(F)(F)C(F)(F)F)cc1Br (stereo not drawn) [B52]
≥ 80%: Plutella xylostella | Spodoptera littoralis | Diabrotica balteata | Thrips tabaci | Heliothis virescens

COc1c(NC(=O)c2cccnc2F)cccc1C(=O)Nc1c(Cl)cc(C(F)(C(F)(F)F)C(F)(F)C(F)(F)F)cc1Br (stereo not drawn) [B194]
≥ 80%: Plutella xylostella | Spodoptera littoralis | Diabrotica balteata | Tetranychus urticae; [1] | Heliothis virescens

COc1c(NC(=O)c2ccc(OC(F)(F)F)cc2)cccc1C(=O)Nc1c(Cl)cc(C(F)(C(F)(F)F)C(F)(F)C(F)(F)F)cc1Br (stereo not drawn) [B13]
≥ 80%: Plutella xylostella | Spodoptera littoralis | Tetranychus urticae; [1] | Heliothis virescens

COc1c(NC(=O)c2ccc(Cl)cc2Cl)cccc1C(=O)Nc1c(C)cc(C(F)(C(F)(F)F)C(F)(F)C(F)(F)F)cc1C (stereo not drawn) [F15]
≥ 80%: Plutella xylostella | Spodoptera littoralis | Diabrotica balteata | Tetranychus urticae; [1] | Heliothis virescens

COc1c(NC(=O)c2cccc(F)c2F)cccc1C(=O)Nc1c(C)cc(C(F)(C(F)(F)F)C(F)(F)C(F)(F)F)cc1C (stereo not drawn) [F8]
≥ 80%: Plutella xylostella | Spodoptera littoralis | Diabrotica balteata | Thrips tabaci | Heliothis virescens

COc1c(NC(=O)c2ccc([N+](=O)[O-])cc2Cl)cccc1C(=O)Nc1c(Cl)cc(C(F)(C(F)(F)F)C(F)(F)C(F)(F)F)cc1Br (stereo not drawn) [B11]
≥ 80%: Plutella xylostella | Spodoptera littoralis | Tetranychus urticae; [1] | Heliothis virescens

CCc1cc(C(F)(C(F)(F)F)C(F)(F)C(F)(F)F)cc(C)c1NC(=O)c1cccc(NC(=O)c2ccccc2Cl)c1OC (stereo not drawn) [A9]
≥ 80%: Plutella xylostella | Spodoptera littoralis | Diabrotica balteata | Thrips tabaci | Heliothis virescens

COc1c(NC(=O)c2ccc(C(C)C)cc2)cccc1C(=O)Nc1c(Cl)cc(C(F)(C(F)(F)F)C(F)(F)C(F)(F)F)cc1Br (stereo not drawn) [B25]
≥ 80%: Plutella xylostella | Spodoptera littoralis | Diabrotica balteata | Thrips tabaci | Heliothis virescens

COc1c(NC(=O)c2cccc(F)c2)cccc1C(=O)Nc1c(C)cc(C(F)(C(F)(F)F)C(F)(F)C(F)(F)F)cc1C (stereo not drawn) [F20]
≥ 80%: Plutella xylostella | Spodoptera littoralis | Diabrotica balteata | Thrips tabaci | Heliothis virescens

COc1c(NC(=O)c2ccc([N+](=O)[O-])cc2Cl)cccc1C(=O)Nc1c(C)cc(C(F)(C(F)(F)F)C(F)(F)C(F)(F)F)cc1C (stereo not drawn) [F28]
≥ 80%: Spodoptera littoralis | Diabrotica balteata | Tetranychus urticae; [1] | Heliothis virescens

COc1c(NC(=O)c2ccc(C#N)cc2Cl)cccc1C(=O)Nc1c(Cl)cc(C(F)(C(F)(F)F)C(F)(F)C(F)(F)F)cc1Br (stereo not drawn) [B198]
≥ 80%: Plutella xylostella | Spodoptera littoralis | Tetranychus urticae; [1] | Heliothis virescens

COc1c(NC(=O)c2cc(C(C)(C)C)nn2C)cccc1C(=O)Nc1c(Cl)cc(C(F)(C(F)(F)F)C(F)(F)C(F)(F)F)cc1Br (stereo not drawn) [B112]
≥ 80%: Plutella xylostella | Spodoptera littoralis | Diabrotica balteata | Thrips tabaci | Heliothis virescens

CCc1cc(C(F)(C(F)(F)F)C(F)(F)C(F)(F)F)cc(C)c1NC(=O)c1cccc(NC(=O)c2cccc(F)c2F)c1OC (stereo not drawn) [A20]
≥ 80%: Plutella xylostella | Spodoptera littoralis | Diabrotica balteata | Thrips tabaci | Heliothis virescens
